Ends that are not written are not given here.
Tests used:
Type in all cases: cell-based
[1] = test system: Staphylococcus epidermidis
Experimental: (§1) Two Gram-positive bacteria, 3 Gram-negative bacteria, and 2 fungi were selected to measure antibacterial activity of peptides. The strains were provided by Department of Microbiology in China Pharmaceutical University and were stored at 4°C until use.
(§2) Antimicrobial activity was evaluated using an inhibition zone assay or determination of the minimal inhibitory concentration (MIC) value with minor modifications as described previously: • Inhibition zone assay: agar plates were seeded with strains (about 10^6 cells in 10 mL of 1% agar medium). Wells (3 mm in diameter) were punched out and a 5 μL peptide sample dissolved in water was loaded. Controls were loaded with water. After incubation at 37°C overnight, the diameter of the inhibition zone was determined. • Determination of the MIC value: MICs were determined using a standard serial dilution method in appropriate medium for each bacterial strain listed in Table 3. In brief, 1 mL of different peptides dilution solutions was poured into a series of sterile plates, and then 9 mL appropriate medium that was preincubated at 37°C was added into a plate and was mixed gently to reach various concentrations (512, 256, 128, 64, 32, 16, 8, 4, 2, 1, and 0.5 μg/mL). Bacteria were added to the 96-well plates. The amount of bacteria for each spot is approximately 10^4 to 10^5 CFU/mL. After incubating the inoculated plate at 37°C for 16 to 18 hours, MICs were determined as the lowest peptide concentration that inhibited bacterial growth. All MICs were determined in two independent experiments performed in duplicate.

Escherichia coli = test system: Escherichia coli
Experimental: as §1, §2

Staphylococcus aureus = test system: Staphylococcus aureus
Experimental: as §1, §2

Aspergillus niger = test system: Aspergillus niger
Experimental: as §1, §2

Pseudomonas aeruginosa = test system: Pseudomonas aeruginosa
Experimental: as §1, §2

Klebsiella = test: MIC, serial dilution method; settings: Klebsiella aeruginosa (so in the source); serial dilution 512-0.5 μg/mL, Luria-Bertani, 37°C, 16 to 18 hours; mean of three independent experiments in duplicate
Experimental: as §1
as §2, with “All MICs were determined in two independent experiments performed in duplicate.” left out

human red blood cells = test: Hemolytic assay; settings: human RBC in PBS pH 7.4, 37°C, 1 h, absorbance 415 nm
Experimental: Hemolytic activity was determined by the procedure of Yoshida et al. with slight modifications. Fresh human blood (1 mL) was centrifuged at 1000 ×g for 5 min and the precipitates were collected and then washed 3 times with phosphate buffered saline (PBS) (pH 7.4). Precipitates were resuspended in 4-fold volumes of PBS. Then, 995 μL of PBS solution containing serial diluted peptides was added to a human erythrocyte solution of 5 μL. The resulting solution was incubated at 37°C for 1 h and was centrifuged at 1000 ×g for 5 min. The supernatant was diluted 5-fold with PBS and was monitored at 415 nm using a UV spectrophotometer. Zero hemolysis (blank) and 100% hemolysis were determined in PBS and 1% Triton X-100, respectively.

Work on KFRWGKPV-NH2 [KPV-8] yielded an MIC [1] of over 512 µg/mL, an MIC (Escherichia coli) of over 512 µg/mL and an MIC (Staphylococcus aureus) of over 512 µg/mL. For the same substance, the MIC (Aspergillus niger) was over 512 µg/mL, the MIC (Pseudomonas aeruginosa) was over 512 µg/mL and the MIC (Klebsiella) was over 512 µg/mL.
In the case of KWKKPKLLKKLLK [KWKK-13], the MIC [1] is reported as over 512 µg/mL, the MIC (Escherichia coli) is reported as 256 µg/mL and the MIC (Staphylococcus aureus) is reported as over 512 µg/mL. For the same substance, the MIC (Aspergillus niger) was over 512 µg/mL, the MIC (Pseudomonas aeruginosa) was over 512 µg/mL and the MIC (Klebsiella) was over 512 µg/mL.
With KWKLFKKIWGKPV-NH2 [KPV-13] the MIC [1] was 32 µg/mL, the MIC (Escherichia coli) was 512 µg/mL and the MIC (Staphylococcus aureus) was over 512 µg/mL. The MIC (Aspergillus niger) was over 512 µg/mL, the MIC (Pseudomonas aeruginosa) was over 512 µg/mL and the MIC (Klebsiella) was over 512 µg/mL.
For KWKYPKLLKKLLK [KW-13], the MIC [1] was 4 µg/mL, the MIC (Escherichia coli) was 64 µg/mL and the MIC (Staphylococcus aureus) was 16 µg/mL. It also gave an MIC (Aspergillus niger) of 256 µg/mL, an MIC (Pseudomonas aeruginosa) of 128 µg/mL and an MIC (Klebsiella) of 128 µg/mL. It also gave a hemolysis (human red blood cells; 100% = 1% Triton X-100, tested at 10, 40, 160 and 640 μg/mL, value holds even at 640 μg/mL) of under 1%.
In the case of Melittin [reference compound], the “concentration causing the lysis of whole erythrocytes” value (human red blood cells) is reported as “below 40 μg/mL”.
In the case of RRWWRFPPPRFPPRFPPP-NH2 [RFPP-18], the MIC [1] is reported as 512 µg/mL, the MIC (Escherichia coli) is reported as 128 µg/mL and the MIC (Staphylococcus aureus) is reported as over 512 µg/mL. It also gave an MIC (Aspergillus niger) of over 512 µg/mL, an MIC (Pseudomonas aeruginosa) of 256 µg/mL and an MIC (Klebsiella) of over 512 µg/mL.
With RRWWRFPRFFRRFFR-NH2 [RFFR-15] the MIC [1] was 128 µg/mL, the MIC (Escherichia coli) was 256 µg/mL and the MIC (Staphylococcus aureus) was 64 µg/mL. The MIC (Aspergillus niger) was over 512 µg/mL, the MIC (Pseudomonas aeruginosa) was over 512 µg/mL and the MIC (Klebsiella) was over 512 µg/mL.
